Test results taken from patent US7776873B2, “Method for treating damage to gastric mucosa” (Yuhan Corporation, priority 2005, dated 2010).

Experiments:
[1] = system: human gastric epithelial (AGS) cells infected with H. pylori (ATCC 43504); assay: Incidence of H. pylori-induced cell death (MTT assay-1); format: cell-based; settings: FIG. 1
Experimental: In order to determine cytoprotective properties of revaprazan against H. pylori infection, gastric mucosal cells were pretreated with revaprazan and rebamipide prior to H. pylori infection, and the incidence of cell death was measured. Rebamipide, known to have cytoprotective properties, was used as a control drug.
The human gastric epithelial (AGS, KCLB 21739) cells were seeded onto 96-well plate at 5×10^4 cells/ml and cultured in RPMI 1640 (Gibco BRL, Grand Island, N.Y., U.S.A.), supplemented with 100 units/mL penicillin, 100 ug/mL streptomycin, and 10% FBS (Fetal Bovine Serum). Revaprazan and rebamipide, dissolved in sterilized water, were added to AGS cells to reach a final concentration of 50 uM and the cells were incubated at 37° C. for 16 hours. To remove RPMI 1640 media, the plate was centrifuged at 24° C., 3000 rpm for 5 minutes and washed three times with PBS (137 mM NaCl, 2.7 mM KCl, 10 mM Na2HPO4, and 2 mM KH2PO4). For inoculation, H. pylori (ATCC 43504) cultures were resuspended in PBS and cocultured with AGS cells at a final concentration of 5×10^8 CFU/ml. After 48 hours of incubation at 37° C., the culture was centrifuged at 24° C., 3000 rpm for 5 minutes to remove the culture medium, i.e., RPMI 1640, and then total viable cell numbers were assessed by MTT (3-[4,5-dimethylthiazol-2-yl]-2,5-diphenyl tetrazolim bromide) assay method. 1 mg/ml of an MTT solution prepared by dissolving MTT (Amresco, Ohio, U.S.A.) in PBS (137 mM NaCl, 2.7 mM KCl, 10 mM Na2HPO4, and 2 mM KH2PO4) was added to each well (50 μl/well), followed by incubation at 37° C. for 4 hours. The supernatant was then removed by centrifugation at 24° C., 3000 rpm for 5 minutes and the formazan grains formed by the viable cells were dissolved in 99.5% dimethyl sulfoxide (DMSO) (Kanto, Tokyo, Japan) (50 μl/well), and the optical intensity was measured at 540 nm using an ELISA reader (TECAN, Maennedorf, Switzerland).

interleukin-8 (IL-8) = assay: Expression level of IL-8 in sulindac-treated cells (RT-PCR); format: cell-based, rat; settings: RGM-1 cells, revaprazan 25 uM (rebamipide 50 uM) 16 hours, then sulindac 100 uM 8 hours, FIG. 6
Experimental: In order to evaluate cytoprotective effect of revaprazan, 100 μM of sulindac belonging to NSAIDs was added to the rat cells, and the expression levels of pro-angiogenic growth factors, VEGF (Vascular Endothelial Growth Factor), interleukin-8 (IL-8), and COX-2 (cyclooxygenase-2) were measured. Rebamipide (50 μM), known to have cytoprotective properties, was used as a control drug and revaprazan (25 μM) was used as a test drug. The rat gastric mucosal (RGM-1, RIKEN cell bank, Japan) cells were seeded in culture dishes at 2×10^6 cells/100 mm^2 and cultured in RPMI 1640 (Gibco BRL, Grand Island, N.Y., U.S.A.), supplemented with 100 units/mL penicillin, 100 ug/mL streptomycin, and 10% FBS (Fetal Bovine Serum). […] The culture media were removed and the cells were washed three times with PBS (137 mM NaCl, 2.7 mM KCl, 10 mM Na2HPO4, and 2 mM KH2PO4). A solution of sulindac in DMSO was added to the cells to reach a final concentration of 100 uM and the cells were cultured at 37° C. for 8 hours. The cultured cells were collected by centrifugation at 23° C. at 3000 rpm for 3 minutes, and the total RNA was isolated from the cells using the TRIzol reagent (Life technologies, Milan, Italy). Sterilized RNase-free water was added to 2 μg of the total RNA and 1 μl of 10 pmol/λ oligo dT to obtain reaction solutions with a volume of 34 μl. […]

## Cc1nc(Nc2ccc(F)cc2)nc(N2CCc3ccccc3C2C)c1C (stereo not drawn) [revaprazan, 5,6-dimethyl-2-(4-fluorophenylamino)-4-(1-methyl-1,2,3,4-tetrahydroisoquinolin-2-yl)pyrimidine]
[1]; 50 uM each
  cytoprotective effect against H. pylori-induced cytotoxicity compared with rebamipide: equal to or greater than rebamipide
[1]; 50 uM pretreatment for 16 hours, then 48-hour H. pylori infection
  gastric mucosal cytotoxicity by H. pylori infection: significantly reduced
interleukin-8 (IL-8)
  expression level of IL-8 versus rebamipide-sulindac treatment group: much higher
